# Measured values from patent US20230089867A1, “CYCLIC PENTAMER COMPOUNDS AS PROPROTEIN CONVERTASE SUBTILISIN/KEXIN TYPE 9 (PCSK9) INHIBITORS FOR THE TREATMENT OF METABOLIC DISORDER” (Novartis AG, priority 2018, published 2023).
# Like-named read-outs stand apart in the source and are kept apart here.
# Experiments:
# [1] = amide bond, 18-membered ring, HATU/HOAt/2,6-lutidine, DCM
# [2] = target: human PCSK9 (Homo sapiens, UniProt Q8NBP7); experiment: PCSK9 ligand binding TR-FRET assay (interference with binding of human PCSK9 to human LDLR); conditions: for Max % inhibition: PCSK9 FRET assay, efficacy (Amax), 100% = 1 uM unlabeled human PCSK9, 0% = DMSO; for IC50: TR-FRET, human PCSK9 Alexa Fluor 647 / human LDLR extracellular domain-Europium Kryptate, read-out: PCSK9 FRET Assay IC50
# Summary of the method: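 Threefold compound dilutions were pre-incubated 30 min with PCSK9, after which 4 nM Europium Kryptate-tagged human LDLR ectodomain was added for a further 2 h.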
# [3] = amide bond, 18-membered ring, HATU/HOAt/2,6-lutidine
# human PCSK9, sequence (Q8NBP7 153-692): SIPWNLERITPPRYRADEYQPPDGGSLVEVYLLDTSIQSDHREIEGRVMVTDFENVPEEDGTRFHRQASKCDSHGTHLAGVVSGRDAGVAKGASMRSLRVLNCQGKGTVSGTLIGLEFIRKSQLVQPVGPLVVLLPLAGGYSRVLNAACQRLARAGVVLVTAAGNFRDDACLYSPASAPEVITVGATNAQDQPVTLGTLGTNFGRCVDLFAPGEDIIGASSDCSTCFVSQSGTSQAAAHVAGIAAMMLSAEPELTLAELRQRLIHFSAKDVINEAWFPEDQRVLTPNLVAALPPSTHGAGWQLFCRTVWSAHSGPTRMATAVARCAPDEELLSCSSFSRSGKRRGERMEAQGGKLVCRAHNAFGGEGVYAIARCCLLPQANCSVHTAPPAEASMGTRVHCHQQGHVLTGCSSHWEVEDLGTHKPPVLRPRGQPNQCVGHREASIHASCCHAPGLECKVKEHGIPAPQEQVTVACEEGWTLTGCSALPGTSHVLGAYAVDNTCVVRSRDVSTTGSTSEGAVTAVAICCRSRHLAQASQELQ
# human PCSK9, sequence (Q8NBP7 31-152 partner limits assumed): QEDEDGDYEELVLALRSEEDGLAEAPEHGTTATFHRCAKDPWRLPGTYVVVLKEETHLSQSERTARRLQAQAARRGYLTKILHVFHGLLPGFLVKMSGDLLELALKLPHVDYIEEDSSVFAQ
Molecule,Max % inhibition [2],IC50 [2],further results
COC[C@@H]1NC(=O)[C@H](CCNC(=O)OC(C)(C)C)N(Cc2ccc(Cl)cc2Oc2ccc(-c3cnc(CN(C)C)n3C)cc2)C(=O)C[C@@H](Cc2ccccc2)C(=O)N(C)[C@H]2CCCC[C@@H]2NC(=O)C[C@H](Cc2ccc(Cl)cc2)N(C)C1=O,–,–,"ring closure, isolated yield ([1]; from (R)-3-Benzyl-4-(((1S,2S)-2-((8S,11S,14S)-8-((4-chloro-2-(4-(2-((dimethylamino)methyl)-1-methyl-1H-imidazol-5-yl)phenoxy)benzyl)amino)-14-(4-chlorobenzyl)-11-(methoxymethyl)-2,2,13-trimethyl-4,9,12-trioxo-3-oxa-5,10,13-triazahexadecan-16-amido)cyclohexyl)(methyl)amino)-4-oxobutanoic acid, 0.845 mM, 45.0 °C): 59.6%"
"COC[C@@H]1NC(=O)[C@H](C)N(Cc2ccc(Cl)cc2Oc2ccc(-c3cnc(CN(C)C)n3C)cc2)C(=O)C[C@@H](Cc2ccccc2)C(=O)N(C)C2CC2NC(=O)C[C@H](Cc2ccc(Cl)cc2)N(C)C1=O.O=C(O)C(F)(F)F (mixture of isomers) [Compound 147, (5S,8S,11S,15R)-15-benzyl-12-(4-chloro-2-(4-(2-((dimethylamino)methyl)-1-methyl-1H-imidazol-5-yl)phenoxy)benzyl)-5-(4-chlorobenzyl)-8-(methoxymethyl)-6,11,17-trimethyl-2,6,9,12,17-pentaazabicyclo[16.1.0]nonadecane-3,7,10,13,16-pentaone trifluoroacetate]",104.16%,3.7 nM,"ring closure, isolated yield ([1]; from (3R)-3-benzyl-4-((2-((S)-3-((S)-2-((S)-2-((4-chloro-2-(4-(2-((dimethylamino)methyl)-1-methyl-1H-imidazol-5-yl)phenoxy)benzyl)amino)propanamido)-3-methoxy-N-methylpropanamido)-4-(4-chlorophenyl)butanamido)cyclopropyl)(methyl)amino)-4-oxobutanoic acid?, 45.0 °C): 19%"
"CCc1ccc(CN2C(=O)C[C@@H](Cc3ccccc3)C(=O)N(C)[C@@H](C)CNC(=O)C[C@H](Cc3ccc(Cl)cc3)N(C)C(=O)[C@H](COC)NC(=O)[C@@H]2CCF)c(Oc2ccc(-c3cnc(CN4CCCC4)n3C)cc2)c1 [Compound 26, (2S,5S,8S,13S,16R)-16-benzyl-8-(4-chlorobenzyl)-1-(4-ethyl-2-(4-(1-methyl-2-(pyrrolidin-1-ylmethyl)-1H-imidazol-5-yl)phenoxy)benzyl)-2-(2-fluoroethyl)-5-(methoxymethyl)-7,13,14-trimethyl-1,4,7,11,14-pentaazacyclooctadecane-3,6,10,15,18-pentaone]",104.11%,2.4 nM,"ring closure, isolated yield ([1]; from (3S,6S,9S,14S,17R)-17-benzyl-9-(4-chlorobenzyl)-1-(4-ethyl-2-(4-(1-methyl-2-(pyrrolidin-1-ylmethyl)-1H-imidazol-5-yl)phenoxy)phenyl)-3-(2-fluoroethyl)-6-(methoxymethyl)-8,14,15-trimethyl-4,7,11,16-tetraoxo-2,5,8,12,15-pentaazanonadecan-19-oic acid, 0.238 mM, 39.0 °C): 47%"
"C=CC[C@@H]1CC(=O)N(Cc2ccc(Cl)cc2Oc2ccc(-c3cnc(CN(C)C)n3C)cc2)[C@@H](C)C(=O)N[C@@H](COC)C(=O)N(C)[C@@H](Cc2ccc(Cl)cc2)CC(=O)NC[C@H](C)N(C)C1=O [Compound 44, (2S,5S,8S,13S,16R)-16-allyl-1-(4-chloro-2-(4-(2-((dimethylamino)methyl)-1-methyl-1H-imidazol-5-yl)phenoxy)benzyl)-8-(4-chlorobenzyl)-5-(methoxymethyl)-2,7,13,14-tetramethyl-1,4,7,11,14-pentaaza cyclooctadecane-3,6,10,15,18-pentaone]",102.15%,2.6 nM,"ring closure, isolated yield ([1]; from (3S,6S,9S,14S,17R)-17-allyl-1-(4-chloro-2-(4-(2-((dimethylamino)methyl)-1-methyl-1H-imidazol-5-yl)phenoxy)phenyl)-9-(4-chlorobenzyl)-6-(methoxymethyl)-3,8,14,15-tetramethyl-4,7,11,16-tetraoxo-2,5,8,12,15-pentaazanonadecan-19-oic acid, 45.0 °C): 26%"
"(2S,5S,8S,13S,16R)-16-benzyl-8-(4-chlorobenzyl)-1-(4-ethyl-2-(4-(1-methyl-2-(pyrrolidin-1-ylmethyl)-1H-imidazol-5-yl)phenoxy)benzyl)-5-(methoxymethyl)-2,7,13,14-tetramethyl-1,4,7,11,14-pentaazacyclooctadecane-3,6,10,15,18-pentaone hydrochloride",–,–,"ring closure, yield after HPLC ([3]; DCM, 0.777 mM, 40.0 °C): 47%"
"(4S,7S,10S,14R,16aS,20aS)-14-Benzyl-11-(4-chloro-2-(4-(2-((dimethylamino)methyl)-1-methyl-1H-imidazol-5-yl)phenoxy)benzyl)-4-(4-chlorobenzyl)-7-(methoxymethyl)-5,16-dimethyl-10-(3-(3,3,4,4-tetrafluoropyrrolidin-1-yl)propyl)hexadecahydrobenzo[l][1,4,7,11,14]pentaazacyclooctadecine-2,6,9,12,15(3H)-pentaone",–,–,"ring closure, yield after HPLC ([3]; DCM, 0.524 mM, 39.0 °C): 17%"
"(4S,7S,10S,16aS,20aS)-4-(4-chlorobenzyl)-11-(2-(difluoromethoxy)-6-(4-(2-((dimethylamino)methyl)-1-methyl-1H-imidazol-5-yl)phenoxy)benzyl)-7-(methoxymethyl)-5,10,16-trimethylhexadecahydro-benzo[l][1,4,7,11,14]pentaazacyclooctadecine-2,6,9,12,15(3H)-pentaone",–,–,"ring closure, yield after HPLC ([3]; DCM/NMP 10:1, 0.91 mM, 40.0 °C): 22%"

# Second part, led by results:
Max % inhibition [2],IC50 [2],Molecule,further results
92.32%,21.1 nM,"CCOC[C@@H]1NC(=O)[C@H](C)N(Cc2ccc(Cl)cc2Oc2ccc(-c3cnc(CN(C)C)n3C)cc2)C(=O)C[C@@H](C)C(=O)N(C)[C@@H](C)CNC(=O)C[C@H](Cc2ccc(Cl)cc2)N(C)C1=O.O=CO [Compound 53, (2S,5S,8S,13S,16R)-1-(4-chloro-2-(4-(2-((dimethylamino)methyl)-1-methyl-1H-imidazol-5-yl)phenoxy)benzyl)-8-(4-chlorobenzyl)-5-(ethoxymethyl)-2,7,13,14,16-pentamethyl-1,4,7,11,14-pentaaza cyclooctadecane-3,6,10,15,18-pentaone formate]","ring closure, isolated yield ([1]; from (3S,6S,9S,14S,17R)-1-(4-chloro-2-(4-(2-((dimethylamino)methyl)-1-methyl-1H-imidazol-5-yl)phenoxy)phenyl)-9-(4-chlorobenzyl)-6-(ethoxymethyl)-3,8,14,15,17-pentamethyl-4,7,11,16-tetraoxo-2,5,8,12,15-pentaazanonadecan-19-oic acid hydrochloride, 1.27 mM, 45.0 °C): 9%"
96.86%,11.5 nM,"C[C@H]1CNC(=O)C[C@H](Cc2ccc(Cl)cc2)N(C)C(=O)[C@H](CC(=O)OC(C)(C)C)NC(=O)[C@H](C)N(Cc2ccc(Cl)cc2Oc2ccc(-c3cnc(CN(C)C)n3C)cc2)C(=O)C[C@@H](Cc2ccccc2)C(=O)N1C [Compound 185, tert-butyl 2-((2S,5S,8S,13S,16R)-16-benzyl-1-(4-chloro-2-(4-(2-((dimethylamino)methyl)-1-methyl-1H-imidazol-5-yl)phenoxy)benzyl)-8-(4-chlorobenzyl)-2,7,13,14-tetramethyl-3,6,10,15,18-pentaoxo-1,4,7,11,14-pentaazacyclooctadecan-5-yl)acetate]","ring closure, isolated yield ([1]; from (3S,6S,9S,14S,17R)-17-benzyl-6-(2-(tert-butoxy)-2-oxoethyl)-1-(4-chloro-2-(4-(2-((dimethyl amino)methyl)-1-methyl-1H-imidazol-5-yl)phenoxy)phenyl)-9-(4-chlorobenzyl)-3,8,14,15-tetramethyl-4,7,11,16-tetraoxo-2,5,8,12,15-pentaazanonadecan-19-oic acid, 1.85 mM, 45.0 °C): 46%"
104.88%,312 nM,"COC[C@@H]1NC(=O)[C@H](C)N(Cc2ccc(Cl)cc2Oc2ccc(-c3cnc(CN(C)C)n3C)cc2)C(=O)C[C@@H](Cc2cccc(C)n2)C(=O)N(C)[C@H]2CCCC[C@@H]2NC(=O)C[C@H](Cc2ccc(Cl)cc2)N(C)C1=O [Compound 265, (4S,7S,10S,14R,16aS,20aS)-11-(4-chloro-2-(4-(2-((dimethylamino)methyl)-1-methyl-1H-imidazol-5-yl)phenoxy)benzyl)-4-(4-chlorobenzyl)-7-(methoxymethyl)-5,10,16-trimethyl-14-((6-methylpyridin-2-yl)methyl)hexadecahydrobenzo-[l][1,4,7,11,14]pentaazacyclooctadecine-2,6,9,12,15(3H)-pentaone]","ring closure, isolated yield ([1]; from (R)-4-(((1S,2S)-2-((S)-3-((S)-2-((S)-2-((4-chloro-2-(4-(2-((dimethylamino)methyl)-1-methyl-1H-imidazol-5-yl)phenoxy)benzyl)amino)propanamido)-3-methoxy-N-methylpropanamido)-4-(4-chlorophenyl)butanamido)cyclohexyl)(methyl)amino)-3-((6-methylpyridin-2-yl)methyl)-4-oxobutanoic acid, 45.0 °C): 31.1%"
